Results taken from patent EP0409227A2, “Pyrimidine nucleosides, their preparation and pharmaceutical preparations” (MATTHES, Eckart, Dr., priority 1989, dated 1991).

How the values were obtained:
[1] = tested on: MT4 Zellen; test: Cytotoxicity: inhibition of proliferation of MT4 cells; format: cell-based
Protocol: (§1) Unter dem Aspekt einer möglichen Anwendung der Verbindungen am Menschen wurden ihre antiproliferativen Wirkungen an menschlichen Zellkulturen wie früher beschrieben getestet (E. Matthes et al. Biochem.Biophys.Res.Commun. 153, 825 (1988)). Dabei zeigte sich, daß z.B. 2′,3′-Didesoxy-3-fluor-5-methylcytidin gegenüber der T-Zellinie MT4 eine CD₅₀ von 190 µM aufweist. In einem weiteren Test, in dem eine mögliche Wachstumshemmung koloniebildender Zellen des Knochenmarks der Maus (CFU-GM) untersucht wurde (E. Matthes et al. Biochem.Biophys.Res.Commun. 165, 488 (1989), erwies sich diese Verbindung ebenfalls als kaum proliferationshemmend (CD₅₀ > 500 µM). Die Wirkung weiterer Verbindungen auf die Proliferation von MT4-Zellen ist in Tabelle 3 zusammengefaßt. Tabelle 3

[2] = tested on: HBsAg-Sekretion von Hep G2 (2.2.15)-Zellen; test: Inhibition of HBsAg secretion of Hep G2 (2.2.15) cells (solid-phase radioimmunoassay of the medium); format: cell-based, HBV
Protocol: (§2) Die Testung der antiviralen Wirksamkeit der Nucleoside auf zelluärer Ebene erfolgte an einer menschlichen Hepatoblastom-Zellinie, die mit dem HBV-Genom tranfiziert wurde und sowohl das Oberflächenantigen des Virus (HBsAg) als auch die HBV-DNA permanent produziert und infektiöse Viruspartikel in das Medium abgibt (Hep G2-Zellen, Klon 2.2.15, Sells et al. Proc.Natl.Acad. Sci. 84, 1005 (1987)). Die Zellen (5x10⁵/ml) wurden in RPMI 1640-Medium mit 2 mM Glutamin und 10% fetalem Kälberserum allein oder zusammen mit den Nucleosid-Analoga für 4 Tage inkubiert, danach wurden den Ansätzen für 24 Stunden ³H-Thymidin bzw. ³H-Desoxyadenosin (3 µCi/ml) zugesetzt, die Zellen abzentrifugiert und darin die säureunlösliche Radioaktivität und damit der Einfluß auf die DNA-Synthese bestimmt. Im Inkubationsmedium wurde das HBsAg durch Festphasenradioimmunoassay (Travenol-Genentech Diagnostics, Cambridge, MA) entsprechend den Instruktionen des Herstellers ermittelt. Die Tabelle 4 faßt die Ergebnisse zusammen, die belegen, daß die getesteten Verbindungen hochwirksame und selektive Hemmstoffe der HBV-Vermehrung sind.

[3] = tested on: Hep G2 (2.2.15)-Zellen; test: DNA synthesis of Hep G2 (2.2.15) cells (acid-insoluble radioactivity after 3H-thymidine or 3H-deoxyadenosine); format: cell-based, menschlichen; settings: 4 days, then 24 h label, mean ± SD of five experiments
Protocol: as §2

[4] = molecular target: T1, HBV-Polymerase (Hepatitis B virus genotype D subtype ayw, UniProt P03156); test: Inhibition of HBV polymerase activity by nucleoside triphosphate analogues (method of Kaplan et al.); format: biochemical; settings: 50 % inhibition of HBV polymerase activity; 3 h incubation at 37 °C; read-out: ID₅₀
T1 construct: Es wurde zunächst die Hemmbarkeit der HBV-assoziierten Polymerase; host or cells: virus-associated endogenous polymerase
T1 sequence (P03156 whole entry): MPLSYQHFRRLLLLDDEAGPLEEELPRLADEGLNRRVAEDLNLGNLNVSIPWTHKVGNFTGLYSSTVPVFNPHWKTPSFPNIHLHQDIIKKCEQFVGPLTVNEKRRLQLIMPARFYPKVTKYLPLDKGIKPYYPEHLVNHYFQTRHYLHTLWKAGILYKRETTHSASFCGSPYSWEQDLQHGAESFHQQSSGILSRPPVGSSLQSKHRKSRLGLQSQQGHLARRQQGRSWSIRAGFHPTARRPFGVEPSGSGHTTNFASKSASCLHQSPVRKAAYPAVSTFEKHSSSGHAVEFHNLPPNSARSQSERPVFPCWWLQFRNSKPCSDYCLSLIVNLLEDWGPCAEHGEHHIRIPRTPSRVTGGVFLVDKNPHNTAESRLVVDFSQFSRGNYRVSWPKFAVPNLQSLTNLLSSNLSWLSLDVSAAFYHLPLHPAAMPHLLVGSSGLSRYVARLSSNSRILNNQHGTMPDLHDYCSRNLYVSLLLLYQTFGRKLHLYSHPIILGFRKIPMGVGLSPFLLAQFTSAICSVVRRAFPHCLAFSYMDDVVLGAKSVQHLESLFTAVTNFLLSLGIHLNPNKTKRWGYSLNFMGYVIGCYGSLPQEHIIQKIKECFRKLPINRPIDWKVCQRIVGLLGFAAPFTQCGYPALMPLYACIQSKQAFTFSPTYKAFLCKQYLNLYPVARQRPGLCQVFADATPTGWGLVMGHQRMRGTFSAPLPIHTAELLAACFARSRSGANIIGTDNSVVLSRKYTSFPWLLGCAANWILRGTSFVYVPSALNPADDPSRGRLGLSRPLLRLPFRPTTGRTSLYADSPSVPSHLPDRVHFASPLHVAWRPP
From the text: Das Hepatitis B Virus (HBV) besitzt eine zirkuläre, partiell doppelsträngige DNA, welche nach Infektion einer Leberzelle durch eine viruseigene Polymerase repliziert wird. Dieser Vorgang setzt jedoch die Synthese einer RNA durch eine zelluläre RNA-Polymerase voraus. Nur diese RNA-Matrize - im Zusammenhang mit der Replikation auch als Prägenom bezeichnet - kann von der HBV-Polymerase für die Synthese zunächst eines RNA-DNA Hybrids und dann der doppelsträngigen DNA benutzt werden. Damit verfügt die HBV-Polymerase über eine enzymatische Aktivität, die der einer reversen Transcriptase ähnelt (Will et al., J.Virology 61, 904 (1987)). Es wurde zunächst die Hemmbarkeit der HBV-assoziierten Polymerase durch die 5′-Triphosphate der erfindungsgemäßen Verbindungen untersucht. Dazu wurde die von Kaplan et al. (J.Virology 12, 995 (1973)) angegebene Methode zur Bestimmung der HBV-Polymerase benutzt, wobei die zu testenden Triphosphate den Ansätzen in verschiedenen Konzentrationen zugesetzt wurden. Die Hemmung der Enzymreaktion wurde nach 3-stündiger Inkubation bei 37 °C durch Vergleich mit einem Kontrollwert ermittelt und daraus die Konzentration der zugesetzten Analoga bestimmt, die zu einer 50 %igen Hemmung der HBV-Polymerase-Aktivität führt (ID₅₀). Tabelle 1 zeigt die Ergebnisse, wobei insbesondere 2′,3′-Didesoxy-3′-fluor-5-methylcytidin durch einen Wert ID₅₀ von 0,03 µM herausragt und damit zu den stärksten bisher bekannten Hemmstoffen der HBV-Polymerase zu rechnen ist. Tabelle 1

[5] = tested on: koloniebildender Zellen des Knochenmarks der Maus (CFU-GM); test: Growth inhibition of colony-forming bone marrow cells (CFU-GM); format: cell-based; settings: mouse bone marrow
Protocol: as §1

[6] = nucleoside 0,01 µM, 4 days + 24 h, mean ± SD of five experiments
[7] = nucleoside 0,1 µM, 4 days + 24 h, mean ± SD of five experiments
[8] = nucleoside 0,01 µM, % of control without nucleoside (100)
[9] = nucleoside 0,1 µM, % of control without nucleoside (100)
[10] = nucleoside 0,03 µM, 4 days + 24 h, mean ± SD of five experiments
[11] = nucleoside 0,3 µM, 4 days + 24 h, mean ± SD of five experiments
[12] = nucleoside 0,03 µM, % of control without nucleoside (100)
[13] = nucleoside 0,3 µM, % of control without nucleoside (100)
[14] = nucleoside 0,003 µM, 4 days + 24 h, mean ± SD of five experiments
[15] = nucleoside 0,003 µM, % of control without nucleoside (100)
[16] = nucleoside 1,0 µM, 4 days + 24 h, mean ± SD of five experiments
[17] = nucleoside 1,0 µM, % of control without nucleoside (100)
[18] = nucleoside 3,0 µM, 4 days + 24 h, mean ± SD of five experiments
[19] = nucleoside 3,0 µM, % of control without nucleoside (100)
[20] = MT4 cells, 50 % inhibition of cell multiplication after 48 h

Compound	HBsAg [2, 6]	HBsAg [2, 7]	HBsAg [2, 8]	HBsAg [2, 9]	HBsAg [2, 10]	HBsAg [2, 11]	HBsAg [2, 12]	HBsAg [2, 13]	HBsAg [2, 14]	HBsAg [2, 15]	HBsAg [2, 16]	HBsAg [2, 17]	HBsAg [2, 18]	HBsAg [2, 19]	^3H-DNA ([3]; nucleoside 0,01 µM)	^3H-DNA ([3]; nucleoside 0,1 µM)	^3H-DNA ([3]; nucleoside 0,03 µM)	^3H-DNA ([3]; nucleoside 0,3 µM)	^3H-DNA ([3]; nucleoside 0,003 µM)	^3H-DNA ([3]; nucleoside 1,0 µM)	other results
Cc1cn([C@H]2C[C@H](N)[C@@H](CO)O2)c(=O)nc1N [2′,3′-Didesoxy-3′-amino-5-methylcytidin]	8,5 ± 1,3 ng/ml	4,8 ± 0,6 ng/ml	44%	25%	7,0 ± 1,1 ng/ml	3,2 ± 0,4 ng/ml	36%	17%	13,9 ± 2,9 ng/ml	72%	0,3 ± 0,1 ng/ml	2%	< 0,1 ng/ml	< 1%	15445 ± 1830 dpm/Kultur	14350 ± 1570 dpm/Kultur	14180 ± 1650 dpm/Kultur	12160 ± 1860 dpm/Kultur	16020 ± 1790 dpm/Kultur	8150 ± 1125 dpm/Kultur	CD₅₀ ([1]; human, 48 h): 1,2 µM; ^3H-DNA ([3]; nucleoside 3,0 µM): 2100 ± 430 dpm/Kultur
Cc1cn([C@H]2C[C@H](F)[C@@H](CO)O2)c(=O)nc1N [2′,3′-Didesoxy-3′-fluor-5-methylcytidin]	7,0 ± 0,9 ng/ml	0,4 ± 0,1 ng/ml	36%	2%	2,4 ± 0,3 ng/ml	< 0,1 ng/ml	12%	< 1%	14,3 ± 2,4 ng/ml	74%	< 0,1 ng/ml	< 1%	< 0,1 ng/ml	< 1%	15060 ± 1895 dpm/Kultur	14350 ± 1520 dpm/Kultur	15580 ± 1910 dpm/Kultur	13175 ± 1975 dpm/Kultur	13270 ± 1650 dpm/Kultur	8295 ± 1010 dpm/Kultur	IC50 [4]: 0.03 µM; CD₅₀ [1, 20]: 190 µM; CD₅₀ [5]: > 500 µM; ^3H-DNA ([3]; nucleoside 3,0 µM): 2470 ± 295 dpm/Kultur
Cc1cn([C@H]2C[C@H](Cl)[C@@H](CO)O2)c(=O)nc1N [2′,3′-Didesoxy-3′chlor-5-methylcytidin, 3′-Chlor-2′,3′-didesoxy-5-methylcytidin]	9,6 ± 1,2 ng/ml	3,4 ± 0,4 ng/ml	50%	18%	7,1 ± 0,8 ng/ml	3,2 ± 0,5 ng/ml	37%	17%	18,5 ± 2,6 ng/ml	96%	0,4 ± 0,1 ng/ml	2%	< 0,1 ng/ml	< 1%	14820 ± 1550 dpm/Kultur	15185 ± 1735 dpm/Kultur	14370 ± 1620 dpm/Kultur	13895 ± 1540 dpm/Kultur	13450 ± 1465 dpm/Kultur	12270 ± 1590 dpm/Kultur	CD₅₀ [1, 20]: 625 µM; ^3H-DNA ([3]; nucleoside 3,0 µM): 10065 ± 1855 dpm/Kultur
Nc1ncnc2c1ncn2[C@H]1C=C[C@@H](CO)O1 [2′,3′-Didehydro-2′,3′-didesoxyadenosin, 9-(2,3-Didesoxy-β-D-glycero-pent-2-enofuranosyl)adenin]	12,4 ± 1,8 ng/ml	0,5 ± 0,2 ng/ml	71%	3%	4,7 ± 0,6 ng/ml	< 0,1 ng/ml	27%	< 1%	16,9 ± 2,6 ng/ml	96%	< 0,1 ng/ml	< 1%	< 0,1 ng/ml	< 1%	17215 ± 1760 dpm/Kultur	16230 ± 1745 dpm/Kultur	18975 ± 1957 dpm/Kultur	19400 ± 1926 dpm/Kultur	19650 ± 1935 dpm/Kultur	9930 ± 1130 dpm/Kultur	CD₅₀ ([1]; human, 48 h): 48 µM; ^3H-DNA ([3]; nucleoside 3,0 µM): 4265 ± 555 dpm/Kultur
